Assay [1] has as its system pRb2/p130 protein in H23 cells. Kind of assay: Western blot of pRb2/p130 in treated H23 cells. Type of assay: cell-based, human. As to conditions: 2.5 μM, observed at 72 hours, maximum at 96 hours. Here is the method:
(§1) Cell cultures and treatment—Cell lines were purchased from the American Type Culture Collection (Rockville, Md.). The cells were cultured in DMEM or RPMI1640 medium supplemented with 10% fetal bovine serum and 2 mM L-glutamine. For treatment, cells were seeded at a density of 5×10^5 cells/100-mm tissue culture dish. 2.5 μM of DNA methyltransferase inhibitor (5-AZA-2-deoxicytidine) was added to the culture medium for up 96 hours.
Western blot analysis of pRb2/p130 was performed using total protein lysates from untreated and 5-AZA-2-deoxicytidine treated H23 cells. Whole cell lysates were prepared in lysis buffer (50 mM Tris/HCl, 5 mM EDTA, 250 mM NaCl, 50 mM NaF, 0.1% Triton-X, 0.1 mM Na3VO4 plus fresh inhibitors). Equal amounts of 100 μg of total extracts were loaded and resolved on a 7% SDS-PAGE. The gels were then transferred onto a nitrocellulose filter and checked by using 0.1% Ponceau red. The monoclonal anti-pRb2/p130 (Transduction Laboratories, Ky., USA) was used at a dilution of 1:800.

Assay [2] relates to Weri-Rb1 cells. Kind of assay: Cell viability (MTT) / proliferation of Weri-Rb1 cells. As to conditions: 2.5 μM, after 96 h of treatment, vs untreated. Format: cell-based, human. Here is the method: (§2) Weri-Rb1 cell line and 5-Aza-2-dc DNA methyltransferase inhibitor treatment—Human retinoblastoma cell line (Weri-Rb1 ) obtained from the American Type Culture Collection (ATCC, Manassas, Va., USA) was cultured in RPMI 1640 supplemented with 10% FCS at spin ratio of 1:2 once a week. A volume of […] of 5-Aza-2-dc, a DNA methyltransferase inhibitor (Sigma-Aldrich, St. Louis, Mo., USA) was added to medium culture of treated cells.
(§3) Cell viability (MTT) and FACS analysis—Quantitative cell viability was measured by colorimetric assay using a cell proliferation kit (MTT) (Roche Molecular Biochemicals, Mannheim, Germany). A total of 5000 cells/well Weri-Rb1 and 5-Aza-2-dc-treated Weri-Rb1 were grown in microtiter plates (96-well) in a final volume of 100 μl culture medium. The incubation period of cell culture was 24, 48 and 96 h in the presence or absence of the 2.5 μM DNA methyltransferase inhibitor. After incubation period, 10 μl MTT labeling reagent was added to each well to a final concentration […]. MTT is cleaved by growing cells to form formazan crystals which allows quantification of cell viability by spectrdphotometric analysis (ELISA) at 550 nm. Cell viability was expressed as the percentage of the absorbance of drug-treated and untreated cells relative to that of the untreated cells of 0 h. […]

Assay [3] deals with RB2/p130 mRNA in H23 cells. Kind of assay: Multiplex RT-PCR of RB2/p130 mRNA in treated H23 cells. Format: cell-based, human. As to conditions: 2.5 μM, beginning at 48 hours after treatment, vs basal level. Here is the method:
as §1
Multiplex RT-PCR—Multiplex RT-PCR analysis was carried out with 0.2 μg of total RNA from treated and untreated H23 cells. PCR was performed using RB2/p130 primers and β-actin specific primers (SuperScript RT-PCR System, Invitrogen).

Assay [4] concerns pRb2/p130 expression in Weri-Rb1 cells. The experiment in a line: Western blot of pRb2/p130 in treated Weri-Rb1 cells. Format: cell-based, human. Conditions: Weri-Rb1 whole cell lysates, treated 24-96 h, vs untreated control after 96 h culture. Here is the method: as §2
Western blotting—Western blot analysis of pRb/p105 and pRb2/p130 was performed on three fresh samples of primary tumors (samples 8-10). Weri-Rb1 cells and one normal retina sample, obtained from a patient who underwent enucleation for painful absolute glaucoma, served as an experimental control. Fresh tissues were immediately frozen in liquid nitrogen. Furthermore, Weri-Rb1 cells treated and untreated with 5-Aza-2-dc at various times were processed for Western blot analysis. Whole tissues lysates were prepared by resuspending homogenized tissues and pelleted cells in lysis buffer (50 mM Tris/HCl, 5 mM EDTA, 250 mM NaCl, 50 mM NaF, 0.1% Triton X-100, 0.1 mM Na3VO4 plus fresh inhibitors). Equal amounts of 100 μg of total extracts were loaded and resolved on a 7 or 10% SDS-PAGE. The gels were then transferred onto a nitrocellulose filter and checked by using 0.1% Ponceau red. […]

In assay [5] the test system is Weri-Rb1 cells. Kind of assay: FACS analysis of 5-Aza-2-dc treated Weri-Rb1 cells. Type of assay: cell-based, human. As to conditions: 2.5 μM. The procedure:
as §2, §3
(In general: In flow cytometry, cells or beads pass a laser one at a time.)

Another assay addresses T1, p107 (human, UniProt P28749 1-1068).
T1 sequence (looked up): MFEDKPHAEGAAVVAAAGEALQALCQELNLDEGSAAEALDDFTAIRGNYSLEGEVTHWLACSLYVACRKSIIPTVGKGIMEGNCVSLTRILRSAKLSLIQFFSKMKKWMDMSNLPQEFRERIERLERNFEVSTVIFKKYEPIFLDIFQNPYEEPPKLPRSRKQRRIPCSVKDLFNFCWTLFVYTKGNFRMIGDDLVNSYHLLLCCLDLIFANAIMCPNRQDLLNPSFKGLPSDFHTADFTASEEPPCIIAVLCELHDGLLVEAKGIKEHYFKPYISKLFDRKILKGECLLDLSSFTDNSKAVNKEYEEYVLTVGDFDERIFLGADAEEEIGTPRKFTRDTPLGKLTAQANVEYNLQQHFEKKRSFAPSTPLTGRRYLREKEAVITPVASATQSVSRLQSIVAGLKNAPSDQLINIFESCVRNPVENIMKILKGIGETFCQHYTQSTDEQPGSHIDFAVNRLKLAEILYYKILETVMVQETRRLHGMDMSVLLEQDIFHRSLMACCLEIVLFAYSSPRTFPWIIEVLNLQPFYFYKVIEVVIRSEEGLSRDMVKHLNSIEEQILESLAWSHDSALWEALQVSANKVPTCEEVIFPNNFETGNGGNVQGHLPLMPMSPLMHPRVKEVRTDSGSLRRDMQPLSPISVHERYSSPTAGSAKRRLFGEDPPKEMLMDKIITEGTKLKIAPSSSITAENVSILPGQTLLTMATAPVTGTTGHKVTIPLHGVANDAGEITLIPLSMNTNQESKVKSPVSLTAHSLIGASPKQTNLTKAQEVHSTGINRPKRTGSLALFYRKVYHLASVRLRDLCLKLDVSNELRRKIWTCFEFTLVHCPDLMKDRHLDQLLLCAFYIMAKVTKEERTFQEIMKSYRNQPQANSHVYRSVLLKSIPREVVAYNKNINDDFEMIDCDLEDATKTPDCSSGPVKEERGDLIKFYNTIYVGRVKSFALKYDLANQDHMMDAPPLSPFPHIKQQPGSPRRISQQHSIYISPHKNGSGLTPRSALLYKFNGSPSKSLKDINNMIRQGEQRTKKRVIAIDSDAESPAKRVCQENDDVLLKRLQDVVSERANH
Kind of assay: co-immunoprecipitation with anti-PAI-2 antibody from nuclear and cytoplasmic lysates of primary human corneal and conjunctival epithelial cells, Western blot with anti-p107. An excerpt:
Western blot and chromatin immuoprecipitation assay—Cytoplasmic and nuclear proteins were extracted from 12 couples of paired normal human corneal and conjunctival epithelial cells by using the PARIS kit (Ambion) according to the manufacturer's instructions. Efficient cytoplasmic and nuclear fractionation was confirmed by Western blotting analysis using anti-GAPDH antibody for the cytoplasmic fraction and anti Oct-1 antibody for the nuclear fraction. Immunoprecipitation experiments were performed using the cytoplasmic and nuclear fractions with PAI-2 as immunoprecipitating antibody (N-18, Santa Cruz Biotechnology, Calif.). The presence of pRb2/p130, Rb1/p105 and p107 in both PAI-2 nuclear and cytoplasmic precipitates was assessed with anti-pRb2/p130, anti-Rb1/p105 and p107 antibodies (211.6, C-15 and C-18, respectively; Santa Cruz Biotechnology, Calif.) by Western blotting.
In order to assess whether PAI-2 associated with the retinoblastoma family proteins, PAI-2 was immunoprecipitated from nuclear and cytoplasmic lysates of twelve paired couples of normal primary human corneal and conjunctival epithelial cells. The immunoprecipitates were then analyzed by Western blotting using anti-pRb2/p130, anti-Rb1/p105, anti-p107 and anti-PAI-2 antibodies. For all the cell lines analyzed, anti-PAI-2 antibody co-immunoprecitated pRb2/p130 and Rb1/p105 from both nuclear and cytoplasmic fractions. […]

Setting [6] is: listed as 5-AZA-2-deoxycytidine.

`Nc1ncn([C@H]2C[C@H](O)[C@@H](CO)O2)c(=O)n1` [5-Aza-dC, 5-Aza-2-deoxycytidine]: the “pRb2/p130 protein level, active hypophosphorylated form” value is “increase” in assay [1] and “increased” in assay [1] (setting [6]). Further, the “number of cells (proliferation rate)” value in the assay with Weri-Rb1 cells [2] is on record as “markedly reduced”. Further, the “RB2/p130 mRNA level” value in assay [3] was “increase”; in assay [3] (setting [6]) it was “increased”. The “expression of endogenous pRb2/p130” value in assay [4] is recorded as “increased expression”. Moreover, the “amount of apoptotic cells” value with Weri-Rb1 cells [5] (96 h, % of treated cells (control 6%)) amounted to 20%. In the assay on Weri-Rb1 cells [5] (after 24 h, % of treated cells (control 30%)), this molecule displayed a G1 arrested cells of 40%.

B1: plasminogen activator inhibitor type-2 (other, human, UniProt P05120 1-415, looked up)
chain: MEDLCVANTLFALNLFKHLAKASPTQNLFLSPWSISSTMAMVYMGSRGSTEDQMAKVLQFNEVGANAVTPMTPENFTSCGFMQQIQKGSYPDAILQAQAADKIHSSFRSLSSAINASTGNYLLESVNKLFGEKSASFREEYIRLCQKYYSSEPQAVDFLECAEEARKKINSWVKTQTKGKIPNLLPEGSVDGDTRMVLVNAVYFKGKWKTPFEKKLNGLYPFRVNSAQRTPVQMMYLREKLNIGYIEDLKAQILELPYAGDVSMFLLLPDEIADVSTGLELLESEITYDKLNKWTSKDKMAEDEVEVYIPQFKLEEHYELRSILRSMGMEDAFNKGRANFSGMSERNDLFLSEVFHQAMVDVNEEGTEAAAGTGGVMTGRTGHGGPQFVADHPFLFLIMHKITNCILFFGRFSSP
notes: Endogenous protein, immunoprecipitated with anti-PAI-2 antibody; also called PAI-2
As for B1, the binding result in the assay with p107 is given as “no binding”.

For the origin of these results see patent US20090270479A1, “Genetic and Epigenetic Alterations In the Diagnosis and Treatment of Cancer” (priority 2005, published 2009).
